In article PMC12198292, “Advancing in vitro assessment of iodide uptake inhibition: integrating a novel biotransformation pretreatment step” (Archives of Toxicology, 2025):
In brackets after ≈: the same amount, converted by molar mass. Several values for one entry are separate records, joined by “and”; a condition that tells them apart may be missing. Equal values may be shown once. Read-outs that look alike come from different tables or passages of the source.

Key:
human NIS [1] = target: T1, human NIS (Homo sapiens, UniProt Q92911); design: host or cells: HEK293T (lentiviral transduction, puromycin selection, GFP sorting; lines NIS 02 and NIS C); method as in Dong et al., 2019; conditions: hNIS-HEK293T-EPA; SK; ref Dong et al., 2019; cited from earlier work
T1 sequence (Q92911 1-643): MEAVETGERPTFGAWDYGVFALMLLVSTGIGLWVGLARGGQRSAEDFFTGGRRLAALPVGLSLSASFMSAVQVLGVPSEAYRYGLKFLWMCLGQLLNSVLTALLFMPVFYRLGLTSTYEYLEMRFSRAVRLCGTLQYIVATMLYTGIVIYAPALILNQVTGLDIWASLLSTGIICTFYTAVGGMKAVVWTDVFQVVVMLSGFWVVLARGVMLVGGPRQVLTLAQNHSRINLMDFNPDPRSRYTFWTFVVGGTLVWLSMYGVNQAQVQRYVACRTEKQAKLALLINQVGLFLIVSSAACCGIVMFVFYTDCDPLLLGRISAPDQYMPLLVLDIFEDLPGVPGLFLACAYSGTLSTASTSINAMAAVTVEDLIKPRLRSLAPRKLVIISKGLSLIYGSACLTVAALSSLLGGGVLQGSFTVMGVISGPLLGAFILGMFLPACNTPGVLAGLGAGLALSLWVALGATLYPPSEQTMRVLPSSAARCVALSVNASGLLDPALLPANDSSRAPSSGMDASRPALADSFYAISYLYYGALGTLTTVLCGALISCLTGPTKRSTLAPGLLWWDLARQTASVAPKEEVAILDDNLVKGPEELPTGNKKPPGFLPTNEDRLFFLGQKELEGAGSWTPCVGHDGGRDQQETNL

in vitro = conditions: human
human NIS [2] = target: T1, human NIS; experiment: Biotransformation (BTS, rat S9)-augmented NIS-inhibition assay, HEK293T NIS02
[3] = design: method as in PubChem https://pubchem.ncbi.nlm.nih.gov/; conditions: ref PubChem https://pubchem.ncbi.nlm.nih.gov/; cited from earlier work
NIS [4] = target: T2, NIS (Rattus norvegicus, UniProt Q63008); experiment: NIS-inhibition assay (iodide uptake, Sandell–Kolthoff reaction) on FRTL-5; assay type: cell-based; conditions: mean ± SD, ≥ 3 independent experiments; 2 h exposure; SK reaction
T2 construct: the endogenously NIS-expressing rat FRTL-5 cell line; host or cells: FRTL-5 (CVCL_0265)
T2 sequence (Q63008 1-618): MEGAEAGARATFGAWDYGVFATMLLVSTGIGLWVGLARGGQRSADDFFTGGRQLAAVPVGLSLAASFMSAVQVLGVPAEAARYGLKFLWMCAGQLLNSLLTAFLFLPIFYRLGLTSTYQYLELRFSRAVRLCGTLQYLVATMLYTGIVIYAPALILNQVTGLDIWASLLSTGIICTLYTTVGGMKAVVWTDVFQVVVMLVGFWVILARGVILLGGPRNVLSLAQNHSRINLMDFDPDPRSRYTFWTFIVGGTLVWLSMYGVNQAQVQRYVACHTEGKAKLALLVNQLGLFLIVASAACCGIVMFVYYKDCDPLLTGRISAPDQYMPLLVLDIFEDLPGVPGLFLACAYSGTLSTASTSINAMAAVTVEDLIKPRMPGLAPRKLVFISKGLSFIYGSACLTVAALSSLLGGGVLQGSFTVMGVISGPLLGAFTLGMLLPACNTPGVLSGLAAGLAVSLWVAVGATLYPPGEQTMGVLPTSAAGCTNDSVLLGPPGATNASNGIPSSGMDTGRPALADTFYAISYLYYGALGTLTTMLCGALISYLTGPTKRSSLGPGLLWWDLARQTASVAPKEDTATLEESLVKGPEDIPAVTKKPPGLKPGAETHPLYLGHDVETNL

human NIS [5] = target: T1, human NIS; design: host or cells: HEK293T (lentiviral transduction, puromycin selection, GFP sorting; lines NIS 02 and NIS C); conditions: hNIS-HEK293T-EPA, RAIU, cited from earlier work; for IC20: read-out: Data from literature NIS IC20; for IC50: read-out: Data from literature NIS IC50
human NIS [6] = target: T1, human NIS; design: method as in Dong et al., 2019; conditions: MCF7hNIS; SK; ref Dong et al., 2019; read-out: Data from literature NIS IC20; cited from earlier work
human NIS [7] = target: T1, human NIS; experiment: NIS-inhibition assay (iodide uptake, Sandell–Kolthoff reaction) on HEK293T NIS C; assay type: cell-based; design: host or cells: HEK293T (lentiviral transduction, puromycin selection, GFP sorting; lines NIS 02 and NIS C)
[8] = design: method as in PubChem https://pubchem.ncbi.nlm.nih.gov/; conditions: ref PubChem https://pubchem.ncbi.nlm.nih.gov/; cited from earlier work; remark: listed apart in the source
human NIS [9] = target: T1, human NIS
human NIS [10] = target: T1, human NIS; experiment: NIS-inhibition assay (iodide uptake, Sandell–Kolthoff reaction) on HEK293T NIS 02; assay type: cell-based; design: host or cells: HEK293T (lentiviral transduction, puromycin selection, GFP sorting; lines NIS 02 and NIS C)
NIS [11] = target: T2, NIS; conditions: FRTL-5, RAIU, ref Buckalew et al., 2020, cited from earlier work; for IC50: read-out: Data from literature NIS IC50
HEK293T NIS C cells = experiment: Neutral red uptake viability assay, HEK293T NIS C; conditions: for NR IC20 HEK293T NISC: mean±SD, 2 h exposure
FRTL-5 cells = experiment: Neutral red uptake viability assay, FRTL-5; conditions: for NR IC20 FRTL-5: mean±SD, 2 h exposure
[12] = ref PubChem https://pubchem.ncbi.nlm.nih.gov/; cited from earlier work
HEK293T NIS02 cells = experiment: Neutral red uptake viability assay, HEK293T NIS02; conditions: read-out: NR IC20 HEK293T NIS02; viability, neutral red assay; mean±SD; 2 h exposure
[13] = mean ± SD, ≥ 3 independent experiments, 2 h exposure, SK reaction
[14] = mean ± SD, ≥ 3 independent experiments, 2 h exposure, SK reaction, read-out: NIS IC50 HEK293T NIS 02

Structure (SMILES): CCCCOC(=O)c1ccccc1C(=O)OCCCC [DBP, Dibutylphthalate]
- Data from literature NIS IC50 (human NIS [1]): n.e.
- IC20 at 2 h (in vitro): 42 µM
- increase of IC20 by preincubation in fully active BTS setup compared to the denatured BTS setup (human NIS [2]; W/S9, W/cof vs D S9, W/cof): more than ninefold
- log Kow [3]: 4.5
- IC50 (NIS [4]): 92.3 ± 11.8 µM
- IC20 (human NIS [5]; ref Dong et al., 2019): 26.9 µM
- IC20 (human NIS [5]; ref Hallinger et al., 2017): 191 µM
- IC50 (human NIS [5]; ref US-EPA, 2024): 26.9 µM
- Data from literature NIS IC50 (human NIS [5]; ref Wang et al., 2018): n.e.
- IC20 (human NIS [6]): 63.1 µM
- NIS IC50 HEK293T NIS C (human NIS [7]; [13]): n.e and n.e.
- Henry‘s law [8]: 1.81x10^-6 atm- m^3/mol
- IC20 (human NIS [9]): 5.57 ± 4.6 µM
- effect of fully active BTS (W/S9, W/cof) on NIS inhibition versus control setups (human NIS [9]): statistically significant reduction in NIS inhibition
- IC50 (human NIS [10]; [14]): 51.7 µM and 52 µM

Structure (SMILES): CCOc1cc(C(C)(C)C)ccc1C1COC(c2c(F)cccc2F)=N1 (stereo not shown) [ETX, Etoxazole, reference compound]
- IC20 (in vitro): 28.8 µM
- IC20 (human NIS [2]; read-out: NIS inhibition IC20 SM): 0.61 µM
- IC50 (human NIS [7]): 11.7 ± 8 µM
- effect of fully active BTS (W/S9, W/cof) on NIS inhibition versus control setups (human NIS [9]): no biotransformation-related effect changes were detected
- IC50 (human NIS [10]; NIS IC50 HEK293T NIS 02): 7.1 ± 4.3 µM

Structure (SMILES): Cn1cc[nH]c1=S [MMI, Methimazole, reference compound]
- Data from literature NIS IC50 (NIS [11]): n.e.
- NR IC20 HEK293T NISC (HEK293T NIS C cells): n.e./ n.e.
- log Kow [3]: -0.34
- NIS IC50 FRTL-5 (NIS [4]): n.e and n.e. / n.e.
- Data from literature NIS IC50 (human NIS [5]; ref Buckalew et al., 2020): n.e.
- Data from literature NIS IC50 (human NIS [5]; ref Hallinger et al., 2017): n.e.
- Data from literature NIS IC50 (human NIS [5]; ref US-EPA, 2024): n.e.
- Data from literature NIS IC50 (human NIS [5]; ref Wang et al., 2019): n.e.
- NIS IC50 HEK293T NIS C (human NIS [7]; [13]): n.e and n.e./ n.e.
- NR IC20 FRTL-5 (FRTL-5 cells): n.e. / n.e.
- NIS IC50 HEK293T NIS 02 (human NIS [10]; [13]): n.e and n.e./ n.e.
- solubility in water [12]: 200 mg/mL (≈ 1750 mM)

Structure (SMILES): O=C(O)C(F)(F)C(F)(F)C(F)(F)C(F)(F)C(F)(F)C(F)(F)C(F)(F)F [PFOA, Perfluorooctanoic acid]
- IC50 (NIS [11]): 25.1 µM
- NR IC20 HEK293T NISC (HEK293T NIS C cells): n.e./ n.e.
- NIS IC50 FRTL-5 (NIS [4]): n.e and n.e. / n.e.
- IC50 (human NIS [5]; ref Buckalew et al., 2020): 75.9 µM
- Data from literature NIS IC50 (human NIS [5]; ref US-EPA, 2024): n.e.
- Data from literature NIS IC50 (human NIS [5]; ref Wang et al., 2018): n.e.
- NIS IC50 HEK293T NIS C (human NIS [7]; [13]): n.e and n.e./ n.e.
- NR IC20 FRTL-5 (FRTL-5 cells): n.e. / n.e.
- NIS IC50 HEK293T NIS 02 (human NIS [10]; [13]): n.e and n.e. / n.e.
- solubility in water [12]: 3.3 mg/mL (≈ 7.97 mM)

Structure (SMILES): O=S(=O)(O)C(F)(F)C(F)(F)C(F)(F)C(F)(F)C(F)(F)C(F)(F)C(F)(F)C(F)(F)F [PFOS, Perfluorooctane sulfonate]
- IC50 (NIS [11]): 0.4 µM
- NR IC20 HEK293T NISC (HEK293T NIS C cells): n.e. / n.e.
- effect of fully active BTS (W/S9, W/cof) on NIS inhibition versus control setups (human NIS [2]; two-way ANOVA, p < 0.05): no significant differences were observed
- log Kow [3]: -1.08
- IC50 (NIS [4]): 9.3 µM and 9.31 µM
- IC50 (human NIS [5]; ref Buckalew et al., 2020): 1.3 µM
- IC50 (human NIS [5]; ref US-EPA, 2024): 20.5 µM
- IC50 (human NIS [5]; ref Wang et al., 2018): 16.6 µM
- IC50 (human NIS [5]; ref Wang et al., 2019): 17 µM
- NIS IC50 HEK293T NIS C (human NIS [7]; [13]): n.e and n.e. / n.e.
- Henry‘s law [8]: 4.34x10^-7 atm- m^3/mol
- NR IC20 FRTL-5 (FRTL-5 cells): n.e.
- IC50 (human NIS [10]; [14]): 30.9 ± 21.7 µM

Structure (SMILES): CC(C)(c1cc(Br)c(O)c(Br)c1)c1cc(Br)c(O)c(Br)c1 [TBBPA, Tetrabromobisphenol A]
- IC20 (HEK293T NIS C cells; read-out: NR IC20 HEK293T NISC, mean±SD, 2 h exposure): 57.6 µM
- log Kow [3]: 4.75
- IC50 (NIS [4]): 91.8 ± 10.8 µM
- IC50 (human NIS [5]; ref US-EPA, 2024): 91.1 µM
- IC20 (HEK293T NIS02 cells): 66.8 µM
- IC50 (human NIS [7]; mean ± SD, ≥ 3 independent experiments, 2 h exposure, SK reaction, read-out: NIS IC50 HEK293T NIS C): 54 ± 27.1 µM
- Henry‘s law [8]: 2.0x10^-7 atm- m^3/mol
- IC20 (FRTL-5 cells; read-out: NR IC20 FRTL-5, mean±SD, 2 h exposure): 33.4 µM
- IC50 (human NIS [10]; [14]): 30.1 ± 11.8 µM
